Experimental data taken from patent US20250320184A1 (SIRONAX LTD., priority 2022, published 2025).

target: T1, SARM1 (50-724) (Homo sapiens, UniProt Q6SZW1); assay: biochemical
T1 sequence (Q6SZW1 50-724): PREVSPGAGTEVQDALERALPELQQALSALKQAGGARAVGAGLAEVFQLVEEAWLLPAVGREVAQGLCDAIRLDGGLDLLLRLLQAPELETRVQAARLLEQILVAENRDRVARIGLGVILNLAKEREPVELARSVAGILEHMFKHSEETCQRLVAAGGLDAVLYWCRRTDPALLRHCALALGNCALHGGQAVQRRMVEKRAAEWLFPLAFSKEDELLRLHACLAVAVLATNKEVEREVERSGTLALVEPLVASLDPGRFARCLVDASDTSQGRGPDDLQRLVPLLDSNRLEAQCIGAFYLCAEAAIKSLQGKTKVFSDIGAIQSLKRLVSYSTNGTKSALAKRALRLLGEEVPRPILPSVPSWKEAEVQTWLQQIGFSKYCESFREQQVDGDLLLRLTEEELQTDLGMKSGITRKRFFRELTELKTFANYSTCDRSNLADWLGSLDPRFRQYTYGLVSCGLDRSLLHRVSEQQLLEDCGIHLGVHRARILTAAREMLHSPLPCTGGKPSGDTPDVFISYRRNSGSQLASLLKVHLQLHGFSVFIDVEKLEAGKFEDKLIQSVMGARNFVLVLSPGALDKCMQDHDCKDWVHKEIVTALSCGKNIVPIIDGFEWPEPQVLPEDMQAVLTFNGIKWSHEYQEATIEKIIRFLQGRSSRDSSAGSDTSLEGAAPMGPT
Procedure: An enzymatic assay was performed in a 384-well plate using Dulbecco's phosphate-buffered saline (PBS) as the reaction buffer. […] The reaction was initiated by adding a mixture of 200 μM nicotinamide mononucleotide (NMN) as activator and 100 μM NAD^+ as substrate. After 1 h of incubation at room temperature, the reaction was terminated with 10 times volume of 70% acetonitrile, then centrifuged at 3800 rpm for 10 min.

IC50 [µM] | Structure (SMILES)
< 0.1 | Cn1ccc(C(=O)N2CC(C)(C)c3ccc(NS(=O)(=O)c4cccc(Cl)c4Cl)cc32)n1 [Compound 295, 2,3-dichloro-N-(3,3-dimethyl-1-(1-methyl-1H-pyrazole-3-carbonyl)indolin-6-yl)benzenesulfonamide]
< 0.1 | CC1(C)CN(C(=O)CC(N)=O)c2cc(NS(=O)(=O)c3cccc(Cl)c3Cl)ccc21 [Compound 299, 3-(6-((2,3-dichlorophenyl)sulfonamido)-3,3-dimethylindolin-1-yl)-3-oxopropanamide]
0.1 to 0.5 | CC1(C)c2ccc(NS(=O)(=O)c3cccc(Cl)c3Cl)cc2C(=O)N1CCO [Compound 303]
< 0.1 | NC(=O)Cn1ccc2ccc(NS(=O)(=O)c3cccc(Cl)c3Cl)cc2c1=O [Compound 306, 2-(7-((2,3-dichlorophenyl)sulfonamido)-1-oxoisoquinolin-2(1H)-yl)acetamide]
< 0.1 | CC1(C)C(=O)N(Cc2ccncc2)c2cc(NS(=O)(=O)c3cccc(Cl)c3Cl)ccc21 [Compound 309, 2,3-dichloro-N-(3,3-dimethyl-2-oxo-1-(pyridin-4-ylmethyl)indolin-6-yl)benzenesulfonamide]
< 0.1 | CC1(C)CN(C(=O)C2(C(N)=O)CC2)c2cc(NS(=O)(=O)c3cccc(Cl)c3Cl)ccc21 [Compound 313, 1-(6-((2,3-dichlorophenyl)sulfonamido)-3,3-dimethylindoline-1-carbonyl)cyclopropane-1-carboxamide]
< 0.1 | CC1(C)CN(S(N)(=O)=O)c2cc(NS(=O)(=O)c3cccc(Cl)c3Cl)ccc21 [Compound 319, 6-((2,3-dichlorophenyl)sulfonamido)-3,3-dimethylindoline-1-sulfonamide]
< 0.1 | CC(Nc1ccc2cc[nH]c(=O)c2c1)c1nn(C2CCC2)c(Cl)c1Cl (centres unmarked) [Compound 322, 7-((1-(4,5-dichloro-1-cyclobutyl-1H-pyrazol-3-yl)ethyl)amino)isoquinolin-1(2H)-one]
< 0.1 | CC1(C)CN(C(=O)c2cc[nH]c(=O)c2)c2cc(NS(=O)(=O)c3cccc(Cl)c3Cl)ccc21 [Compound 326, 2,3-dichloro-N-(3,3-dimethyl-1-(2-oxo-1,2-dihydropyridine-4-carbonyl)indolin-6-yl)benzenesulfonamide]
< 0.1 | CC1(C)C(=O)N(CC2CNC(=O)CO2)c2cc(NS(=O)(=O)c3cccc(Cl)c3Cl)ccc21 (centres unmarked) [Compound 333, 2,3-dichloro-N-(3,3-dimethyl-2-oxo-1-((5-oxomorpholin-2-yl)methyl)indolin-6-yl)benzenesulfonamide]
< 0.1 | CC(Nc1cc(F)c2ncn(C3CC(O)C3)c(=O)c2c1)c1nc(Cl)c(Cl)s1 (centres unmarked) [Compound 340, 6-((1-(4,5-dichlorothiazol-2-yl)ethyl)amino)-8-fluoro-3-(3-ydroxycyclobutyl)quinazolin-4(3H)-one]
> 1 | Cc1ccc(C)c(S(=O)(=O)Nc2ccc3c(c2)C(=O)NCC3)c1 [Example 2A, 2,5-dimethyl-N-(1-oxo-1,2,3,4-tetrahydroisoquinolin-7-yl)benzenesulfonamide]
> 1 | Cc1ccc(S(=O)(=O)Nc2ccc3c(c2)C(=O)NCC3)c(C)c1 [Example 3A, 2,4-dimethyl-N-(1-oxo-1,2,3,4-tetrahydroisoquinolin-7-yl)benzenesulfonamide]
> 1 | Cc1cc(F)ccc1S(=O)(=O)Nc1ccc2c(c1)C(=O)NCC2 [Example 4A, 4-fluoro-2-methyl-N-(1-oxo-1,2,3,4-tetrahydroisoquinolin-7-yl)benzenesulfonamide]
< 0.1 | Cc1c(Cl)cccc1S(=O)(=O)Nc1ccc2c(c1)C(=O)NCC2 [Example 5A, 3-chloro-2-methyl-N-(1-oxo-1,2,3,4-tetrahydroisoquinolin-7-yl)benzenesulfonamide]
> 1 | O=C1NCCc2ccc(NS(=O)(=O)c3ccccc3Cl)cc21 [Example 6A, 2-chloro-N-(1-oxo-1,2,3,4-tetrahydroisoquinolin-7-yl)benzenesulfonamide]
> 1 | Cc1cc(S(=O)(=O)Nc2ccc(CC(N)=O)cc2)c(F)cc1F [Example 8A]
> 1 | O=C1NCCc2ccc(NS(=O)(=O)c3ccc(F)c(Cl)c3)cc21 [Example 9A, 3-chloro-4-fluoro-N-(1-oxo-1,2,3,4-tetrahydroisoquinolin-7-yl)benzenesulfonamide]
0.5 to 1 | Cc1cc(C)c(S(=O)(=O)Nc2ccc3c(c2)C(=O)NCC3)c(C)c1 [Example 10A, 2,4,6-trimethyl-N-(1-oxo-1,2,3,4-tetrahydroisoquinolin-7-yl)benzenesulfonamide]
0.5 to 1 | CC(Nc1ccc2cn[nH]c2c1)c1cccc(Cl)c1Cl (centres unmarked) [Example 12A, N-(1-(2,3-dichlorophenyl)ethyl)-1H-indazol-6-amine]

IC50 [µM] | Structure (SMILES)
> 1 | CC(Nc1ccc2ccccc2c1)c1cccc(Cl)c1Cl (centres unmarked) [Example 13A, N-(1-(2,3-dichlorophenyl)ethyl)naphthalen-2-amine]
> 1 | O=C1NCCc2ccc(NS(=O)(=O)c3ccc(F)cc3F)cc21 [Example 14A, 2,4-difluoro-N-(1-oxo-1,2,3,4-tetrahydroisoquinolin-7-yl)benzenesulfonamide]
> 1 | Cc1cc(F)cc(S(=O)(=O)Nc2ccc3c(c2)C(=O)NCC3)c1 [Example 15A, 3-fluoro-5-methyl-N-(1-oxo-1,2,3,4-tetrahydroisoquinolin-7-yl)benzenesulfonamide]
> 1 | O=C1NCCc2ccc(NC(c3ccccc3)c3ccccc3)cc21 [Example 124, 7-(benzhydrylamino)-3,4-dihydroisoquinolin-1(2H)-one]
> 1 | Cc1c(F)cccc1[S+]([O-])Nc1ccc2c(c1)C(=O)NCC2 (centres unmarked) [Example 158]
0.5 to 1 | Cc1c(F)cccc1S(=O)(=O)Nc1cccc(-c2cscn2)c1 [Example 159, 3-fluoro-2-methyl-N-(3-(thiazol-4-yl)phenyl)benzenesulfonamide]
0.5 to 1 | Cc1c(F)cccc1S(=O)(=O)Nc1cccc(-c2ccccn2)c1 [Example 160, 3-fluoro-2-methyl-N-(3-(pyridin-2-yl)phenyl)benzenesulfonamide]
> 1 | Cc1c(F)cccc1S(=O)(=O)Nc1cccc(-c2cnn(C)c2)c1 [Example 161, 3-fluoro-2-methyl-N-(3-(1-methyl-1H-pyrazol-4-yl)phenyl)benzenesulfonamide]
> 1 | Cc1c(F)cccc1S(=O)(=O)Nc1cccc(-c2ccc[nH]c2=O)c1 [Example 162, 3-fluoro-2-methyl-N-[3-(2-oxo-1,2-dihydropyridin-3-yl)phenyl]benzenesulfonamide]
> 1 | Cc1cc(F)cc(C(CO)Nc2ccc3c(c2)C(=O)NCC3)c1 (centres unmarked) [Example 163, 7-((1-(3-fluoro-5-methylphenyl)-2-hydroxyethyl)amino)-3,4-dihydroisoquinolin-1(2H)-one]
> 1 | CC1CCN(S(=O)(=O)Nc2ccc3c(c2)C(=O)NCC3)CC1 [Example 164, 4-methyl-N-(1-oxo-1,2,3,4-tetrahydroisoquinolin-7-yl)piperidine-1-sulfonamide]
> 1 | CC1CN(S(=O)(=O)Nc2ccc3c(c2)C(=O)NCC3)CC(C)O1 (centres unmarked) [Example 165, 2,6-dimethyl-N-(1-oxo-1,2,3,4-tetrahydroisoquinolin-7-yl)morpholine-4-sulfonamide]
> 1 | CC1(C)CCCCN1S(=O)(=O)Nc1ccc2c(c1)C(=O)NCC2 [Example 168, 2,2-dimethyl-N-(1-oxo-1,2,3,4-tetrahydroisoquinolin-7-yl)piperidine-1-sulfonamide]
> 1 | Cc1cc(F)cc(C(C#N)Nc2ccc3c(c2)C(=O)NCC3)c1 (centres unmarked) [Example 173, 2-(3-fluoro-5-methylphenyl)-2-((1-oxo-1,2,3,4-tetrahydroisoquinolin-7-yl)amino)acetonitrile]
0.1 to 0.5 | Cc1cc(F)cc(C(Nc2ccc3c(c2)C(=O)NCC3)C(F)(F)F)c1 (centres unmarked) [Example 174, 7-((2,2,2-trifluoro-1-(3-fluoro-5-methylphenyl)ethyl)amino)-3,4-dihydroisoquinolin-1(2H)-one]
> 1 | Cc1cc(F)cc(C2(Nc3ccc4c(c3)C(=O)N(C)CC4)COC2)c1 [Example 175, 7-((3-(3-fluoro-5-methylphenyl)oxetan-3-yl)amino)-2-methyl-3,4-dihydroisoquinolin-1(2H)-one]
> 1 | Cc1cc(F)cc(C(CO)Oc2ccc3c(c2)C(=O)NCC3)c1 (centres unmarked) [Example 176, 7-(1-(3-fluoro-5-methylphenyl)-2-hydroxyethoxy)-3,4-dihydroisoquinolin-1(2H)-one]
> 1 | Cc1cc(F)cc(C(Nc2ccc3c(c2)C(=O)NCC3)c2ccncc2)c1 (centres unmarked) [Example 177, 7-(((3-fluoro-5-methylphenyl)(pyridin-4-yl)methyl)amino)-3,4-dihydroisoquinolin-1(2H)-one]
0.1 to 0.5 | Clc1cccc(C(Nc2ccc3cccnc3c2)C2CCC2)c1Cl (centres unmarked) [Example 179, N-(cyclobutyl(2,3-dichlorophenyl)methyl)quinolin-7-amine]
0.1 to 0.5 | Clc1cccc(C(Nc2ccc3cccnc3c2)C2CC2)c1Cl (centres unmarked) [Example 180, N-(cyclopropyl(2,3-dichlorophenyl)methyl)quinolin-7-amine]

Structure (SMILES) | IC50 [µM]
O=C1NCCc2ccc(NS(=O)(=O)N3C4CCCC3CC4)cc21 [Example 166, N-(1-oxo-1,2,3,4-tetrahydroisoquinolin-7-yl)-8-azabicyclo[3.2.1]octane-8-sulfonamide] | > 1
